Measured values as given in patent US9856216B2, “Compounds as TNIK, IKKε and TBK1 inhibitors and pharmaceutical composition comprising same” (GREEN CROSS CORPORATION, priority 2015, dated 2018).

molecular target: T1, TNIK (Homo sapiens, UniProt Q9UKE5); assay: ADP-Glo Kinase Assay, inhibition activity on TNIK; type: biochemical; settings: read-out: TNIK
T1 construct: purchased Promega V4158
Experimental: The inhibition activities on TNIK, IKKε and TBK1 were measured by a luminometer, TNIK/IKKε/TBK1 Kinase Enzyme System (Promega, Ca# V4158; Invitrogen, PR8031B, Promega, Ca# V3991) and ADP-Glo Kinase Assay using ADP-Glo™ Kinase Analysis Kit (Promega, Ca# V9101) and a kinase reaction buffer [40 mM Tris(pH 7.5), 20 mM MgCl2, 0.1 mg/mL BSA] in accordance with the manufacturer's protocol.

T1 sequence (Q9UKE5 1-367 limits assumed): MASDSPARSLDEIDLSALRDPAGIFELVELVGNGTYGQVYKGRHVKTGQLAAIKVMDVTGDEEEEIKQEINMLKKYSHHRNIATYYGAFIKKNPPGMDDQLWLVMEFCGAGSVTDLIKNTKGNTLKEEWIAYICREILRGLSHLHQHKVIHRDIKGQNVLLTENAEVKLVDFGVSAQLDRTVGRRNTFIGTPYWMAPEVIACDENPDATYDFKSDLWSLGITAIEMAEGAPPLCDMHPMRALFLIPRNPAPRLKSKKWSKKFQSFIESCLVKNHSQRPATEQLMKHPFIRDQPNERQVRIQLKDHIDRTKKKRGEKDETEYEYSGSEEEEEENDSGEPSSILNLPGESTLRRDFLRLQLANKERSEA

`COc1cccc(-c2ccc(NC(=O)c3ccc(NCCCN(C)C)cc3)c3c2CNC3=O)c1OC` [Example 306, N-(7-(2,3-dimethoxyphenyl)-3-oxoisoindolin-4-yl)-4-((3-(dimethylamino)propyl)amino)benzamide] and `COc1cccc(-c2ccc(NC(=O)c3ccc(NCCO)cc3)c3c2CNC3=O)c1OC` [Example 311, N-(7-(2,3-dimethoxyphenyl)-3-oxoisoindolin-4-yl)-4-((2-hydroxyethyl)amino)benzamide] are within 1.5-fold of each other in IC50: 0.074 µM for the first, 0.052 µM for the second.

`COc1ccccc1-c1ccc(NC(=O)c2ccc(NCCCN3CCCCC3)cc2)c2c1CNC2=O` [Example 307, N-(7-(2-methoxyphenyl)-3-oxoisoindolin-4-yl)-4-((3-(piperidin-1-yl)propyl)amino)benzamide] and `COc1ccccc1-c1ccc(NC(=O)c2ccc(NCCN3CCCC3)cc2)c2c1CNC2=O` [Example 318, N-(7-(2-methoxyphenyl)-3-oxoisoindolin-4-yl)-4-((2-(pyrrolidin-1-yl)ethyl)amino)benzamide] are within 1.5-fold of each other in IC50: 0.19 µM for the first, 0.26 µM for the second.

`COc1cccc(-c2ccc(NC(=O)c3ccc(NCCCN4CCCCC4)cc3)c3c2CNC3=O)c1OC` [Example 308, N-(7-(2,3-dimethoxyphenyl)-3-oxoisoindolin-4-yl)-4-((3-(piperidin-1-yl)propyl)amino)benzamide] and `COc1cccc(-c2ccc(NC(=O)c3ccc(NCCCN4CCN(C)CC4)cc3)c3c2CNC3=O)c1OC` [Example 316, N-(7-(2,3-dimethoxyphenyl)-3-oxoisoindolin-4-yl)-4-((3-(4-methylpiperazin-1-yl)propyl)amino)benzamide] are within 1.5-fold of each other in IC50: 0.053 µM for the first, 0.057 µM for the second.

First: Cc1cc(NCCN2CCCC2)ccc1C(=O)Nc1ccc(-c2ccccc2)c2c1C(=O)NC2 [Example 309, 2-Methyl-N-(3-oxo-7-phenylisoindolin-4-yl)-4-((2-(pyrrolidin-1-yl)ethyl)amino)benzamide]
Second: O=C(Nc1ccc(-c2ccccc2)c2c1C(=O)NC2)c1ccc(NCCN2CCCC2)cc1 [Example 317, N-(3-oxo-7-phenylisoindolin-4-yl)-4-((2-(pyrrolidin-1-yl)ethyl)amino)benzamide]
The IC50 of the first is 13-fold higher: 4.82 µM for the first, 0.36 µM for the second. The second is the more potent here.

`COCCCNc1ccc(C(=O)Nc2ccc(-c3cccnc3OC)c3c2C(=O)NC3)cc1` [Example 310, 4-((3-Methoxypropyl)amino)-N-(7-(2-methoxypyridin-3-yl)-3-oxoisoindolin-4-yl)benzamide] and `COCCCNc1ccc(C(=O)Nc2ccc(-c3ccccc3OC)c3c2C(=O)NC3)cc1` [Example 332, N-(7-(2-methoxyphenyl)-3-oxoisoindolin-4-yl)-4-((3-methoxypropyl)amino)benzamide] are within 1.5-fold of each other in IC50: 0.39 µM for the first, 0.51 µM for the second.

First: COc1cccc(-c2ccc(NC(=O)c3ccc(N4CCOCC4)cc3)c3c2CNC3=O)c1OC [Example 312, N-(7-(2,3-dimethoxyphenyl)-3-oxoisoindolin-4-yl)-4-morpholinobenzamide]
Second: COc1ccccc1-c1ccc(NC(=O)c2ccc(N3CCOCC3)cc2)c2c1CNC2=O [Example 323, N-(7-(2-methoxyphenyl)-3-oxoisoindolin-4-yl)-4-morpholino benzamide]
The IC50 of the first is 2-fold higher: 0.73 µM for the first, 0.37 µM for the second. The second is the more potent here.

First: COc1c(F)cccc1-c1ccc(NC(=O)c2ccc(NCCN3CCCC3)cc2)c2c1CNC2=O [Example 313, N-(7-(3-fluoro-2-methoxyphenyl)-3-oxoisoindolin-4-yl)-4-((2-(pyrrolidin-1-yl)ethyl)amino)benzamide]
Second: O=C(Nc1ccc(-c2cccc3ncoc23)c2c1C(=O)NC2)c1ccc(NCCN2CCCCC2)cc1 [Example 342, N-(7-(benzo[d]oxazol-7-yl)-3-oxoisoindolin-4-yl)-4-((2-(piperidin-1-yl)ethyl)amino)benzamide]
The IC50 of the first is 10-fold higher: 0.45 µM for the first, 0.043 µM for the second.

Compared with `COc1cccc(-c2ccc(NC(=O)c3ccc(NCCN4CCN(C)CC4)cc3)c3c2CNC3=O)c1OC` [Example 314, N-(7-(2,3-dimethoxyphenyl)-3-oxoisoindolin-4-yl)-4-((2-(4-methylpiperazin-1-yl)ethyl)amino)benzamide], `COc1ccccc1-c1ccc(NC(=O)c2ccc(NCCCN3CCN(C)CC3)cc2)c2c1CNC2=O` [Example 330, N-(7-(2-methoxyphenyl)-3-oxoisoindolin-4-yl)-4-((3-(4-methylpiperazin-1-yl)propyl)amino)benzamide] is 5.9-fold higher in IC50: 0.086 µM for the first, 0.51 µM for the second.

Compared with `COc1cccc(-c2ccc(NC(=O)c3ccc(NCCN)cc3)c3c2CNC3=O)c1OC` [Example 315, 4-((2-Aminoethyl)amino)-N-(7-(2,3-dimethoxyphenyl)-3-oxoisoindolin-4-yl)benzamide], `COCCNc1ccc(C(=O)Nc2ccc(-c3ccccc3OC)c3c2C(=O)NC3)cc1` [Example 324, 4-((2-Methoxyethyl)amino)-N-(7-(2-methoxyphenyl)-3-oxoisoindolin-4-yl)benzamide] is 8.1-fold higher in IC50: 0.037 µM for the first, 0.3 µM for the second.

Going from `CN1CCN(c2ccc(C(=O)Nc3ccc(-c4ccccc4)c4c3C(=O)NC4)cc2)CC1` [Example 319, 4-(4-Methylpiperazin-1-yl)-N-(3-oxo-7-phenylisoindolin-4-yl)benzamide] to `O=C(Nc1ccc(-c2ccccc2)c2c1C(=O)NC2)c1ccc(N2CCOCC2)cc1` [Example 320, 4-Morpholino-N-(3-oxo-7-phenylisoindolin-4-yl)benzamide], the IC50 rises from 2.7 µM to 8.8 µM (3.3-fold). The first is the more potent here.

First: COCCNc1ccc(C(=O)Nc2ccc(-c3ccccc3)c3c2C(=O)NC3)cc1 [Example 321, 4-((2-Methoxyethyl)amino)-N-(3-oxo-7-phenylisoindolin-4-yl) benzamide]
Second: COCCCNc1ccc(C(=O)Nc2ccc(-c3ccccc3)c3c2C(=O)NC3)cc1 [Example 331, 4-((3-Methoxypropyl)amino)-N-(3-oxo-7-phenylisoindolin-4-yl) benzamide]
The IC50 of the first is 1.6-fold lower: 0.5 µM for the first, 0.79 µM for the second. The first is the more potent here.

Going from `O=C(Nc1ccc(-c2ccccc2)c2c1C(=O)NC2)c1ccc(NCCN2CCOCC2)cc1` [Example 322, 4-((2-Morpholinoethyl)amino)-N-(3-oxo-7-phenylisoindolin-4-yl)benzamide] to `O=C(Nc1ccc(-c2ccccc2)c2c1C(=O)NC2)c1ccc(NCCCN2CCOCC2)cc1` [Example 327, 4-((3-Morpholinopropyl)amino)-N-(3-oxo-7-phenylisoindolin-4-yl)benzamide], the IC50 rises from 0.34 µM to 0.7 µM (2.1-fold).

Compared with `COc1ccccc1-c1ccc(NC(=O)c2ccc(N3CCN(C)CC3)cc2)c2c1CNC2=O` [Example 325, N-(7-(2-methoxyphenyl)-3-oxoisoindolin-4-yl)-4-(4-methylpiperazin-1-yl)benzamide], `COc1ccccc1-c1ccc(NC(=O)c2ccc(NCCN3CCOCC3)cc2)c2c1CNC2=O` [Example 326] is 4-fold lower in IC50: 0.37 µM for the first, 0.093 µM for the second.

`COc1ccccc1-c1ccc(NC(=O)c2ccc(NCCCN3CCOCC3)cc2)c2c1CNC2=O` [Example 328] and `O=C(Nc1ccc(-c2ccco2)c2c1C(=O)NC2)c1ccc(NCCCN2CCOCC2)cc1` [Example 337, N-(7-(furan-2-yl)-3-oxoisoindolin-4-yl)-4-((3-morpholinopropyl)amino)benzamide] are within 1.5-fold of each other in IC50: 0.4 µM for the first, 0.56 µM for the second.

`CN1CCN(CCCNc2ccc(C(=O)Nc3ccc(-c4ccccc4)c4c3C(=O)NC4)cc2)CC1` [Example 329, 4-((3-(4-Methylpiperazin-1-yl)propyl)amino)-N-(3-oxo-7-phenylisoindolin-4-yl)benzamide] and `O=C(Nc1ccc(-c2ccco2)c2c1C(=O)NC2)c1ccc(NCCCN2CCCC2)cc1` [Example 339, N-(7-(furan-2-yl)-3-oxoisoindolin-4-yl)-4-((3-(pyrrolidin-1-yl)propyl)amino)benzamide] are within 1.5-fold of each other in IC50: 0.44 µM for the first, 0.31 µM for the second.

Compared with `O=C(Nc1ccc(-c2ccccc2)c2c1C(=O)NC2)c1ccc(NCc2cccs2)cc1` [Example 333, N-(3-oxo-7-phenylisoindolin-4-yl)-4-((thiophen-2-ylmethyl)amino)benzamide], `COc1ccccc1-c1ccc(NC(=O)c2ccc(NCc3cccs3)cc2)c2c1CNC2=O` [Example 334, N-(7-(2-methoxyphenyl)-3-oxoisoindolin-4-yl)-4-((thiophen-2-ylmethyl)amino)benzamide] is 3.9-fold lower in IC50: 1.6 µM for the first, 0.41 µM for the second.

First: CN(C)CCCNc1ccc(C(=O)Nc2ccc(-c3ccco3)c3c2C(=O)NC3)cc1 [Example 335, 4-((3-(Dimethylamino)propyl)amino)-N-(7-(furan-2-yl)-3-oxoisoindolin-4-yl)benzamide]
Second: COCCCNc1ccc(C(=O)Nc2ccc(-c3ccco3)c3c2C(=O)NC3)cc1 [Example 336, N-(7-(furan-2-yl)-3-oxoisoindolin-4-yl)-4-((3-methoxypropyl)amino)benzamide]
The IC50 of the first is 2.3-fold lower: 0.43 µM for the first, 0.98 µM for the second. The first is the more potent here.

Going from `O=C(Nc1ccc(-c2ccco2)c2c1C(=O)NC2)c1ccc(NCCCN2CCCCC2)cc1` [Example 338, N-(7-(furan-2-yl)-3-oxoisoindolin-4-yl)-4-((3-(piperidin-1-yl)propyl)amino)benzamide] to `O=C(Nc1ccc(-c2cccc3ncoc23)c2c1C(=O)NC2)c1ccc(NCCCN2CCCCC2)cc1` [Example 343, N-(7-(benzo[d]oxazol-7-yl)-3-oxoisoindolin-4-yl)-4-((3-(piperidin-1-yl)propyl)amino)benzamide], the IC50 falls from 0.37 µM to 0.042 µM (8.8-fold). The second is the more potent here.

First: NC1CCN(c2ccc(C(=O)Nc3ccc(-c4ccccc4)c4c3C(=O)NC4)cc2)CC1 [Example 340, 4-(4-Aminopiperidin-1-yl)-N-(3-oxo-7-phenylisoindolin-4-yl) benzamide]
Second: O=C(Nc1ccc(-c2ccccc2)c2c1C(=O)NC2)c1ccc(OCCN2CCOCC2)cc1 [Example 345, 4-(2-Morpholinoethoxy)-N-(3-oxo-7-phenylisoindolin-4-yl) benzamide]
The IC50 of the first is 1.7-fold lower: 0.68 µM for the first, 1.14 µM for the second. The first is the more potent here.

First: CN(C)CCNc1ccc(C(=O)Nc2ccc(-c3cccc4ncoc34)c3c2C(=O)NC3)cc1 [Example 341, N-(7-(benzo[d]oxazol-7-yl)-3-oxoisoindolin-4-yl)-4-((2-(dimethylamino)ethyl)amino)benzamide]
Second: O=C(Nc1ccc(-c2cccc3ncoc23)c2c1C(=O)NC2)c1ccc(NCCN2CCCCCC2)cc1 [Example 344, 4-((2-(Azepan-1-yl)ethyl)amino)-N-(7-(benzo[d]oxazol-7-yl)-3-oxoisoindolin-4-yl)benzamide]
The IC50 of the first is 1.6-fold lower: 0.038 µM for the first, 0.061 µM for the second. The first is the more potent here.
